From US5866775A, “Glyphosate-tolerant 5-enolpyruvyl-3-phosphoshikimate synthases” (Monsanto Company, priority 1990, dated 1999)

Target: T1, pMON8252 encoded petunia EPSPS variant, glycine (101) to alanine and alanine (192) to threonine (Petunia hybrida, UniProt P11043, A264T/G173A)
T1 construct: alanine 192 in the mature petunia EPSP synthase; made in house; host or cells: E. coli SR481 (aroA-)
Assay: EPSP synthase kinetic constants (appKm PEP, appKi glyphosate)
Format: biochemical
Details: extract of SR481 cells with pMON8252
Description: The balance of the #742 preculture (~750 μl) was used to inoculate 2 ml of 2XYT medium containing 50 μg/ml carbenicillin and was shaken overnight at 37° C. to reach saturation. Plasmid DNA was isolated from an aliquot of the saturated culture using an alkaline lysis procedure. The plasmid was designated pMON8252. An aliquot of the pMON8252 plasmid was used to transform the E. coli host SR481 (described above) and reselected on MOPS medium containing 10 mM glyphosate and 50 μg/ml carbenicillin. A single glyphosate resistant colony of pMON8252 was picked off the selection plate and used to inoculate 3 ml of 2XY1 bacterial medium containing 50 μg/ml carbenicillin. The culture was then aerated on a rotating wheel at 37° C. until saturated and then used to inoculate a larger 250 ml culture. The large culture was grown to saturation by continuously shaking it overnight at 37° C. in a water bath. The bacterial cells were lysed and the extracts were assayed for EPSPS activity.
Specifically, the bacterial cell paste was washed twice with 0.9% saline, suspended in buffer (100 mM Tris-HCl, 5 mM benzamidine HCl) and passed twice through a French Pressure Cell at 1000 psi. The cell extract was separated from the cells by centrifuging at 15,000×gravity for 10 minutes at 5° C. It was desalted using Sephadex G-50 (Pharmacia, Piscataway, N.J.). The desalted extract was assayed for EPSP synthase activity as follows.
Kinetic constants (appKm PEP and appKi glyphosate) were determined for EPSP synthase as described below. Substrate kinetic parameters were determined at pH 7.9 in 50 mM HEPES (N-[2-hydroxyethyl]piperazine-N'-[2-ethanesulfonic acid]) buffer in the presence of 2 mM S3P and varying amounts of ^14 C-PEP (10 μM-400 μM), for 2.0 minutes at 25° C. Reactions were quenched with 100 mM NaAcetate in ethanol, pH 4.5, centrifuged and analyzed for product EPSP formation by HPLC with flow radioactivity detection. HPLC conditions were 0.35M KPi, pH 6.5, on a Synchropak AX100 column at 1.0 ml/minute.

T1 sequence (P11043 73-516 G173A/A264T): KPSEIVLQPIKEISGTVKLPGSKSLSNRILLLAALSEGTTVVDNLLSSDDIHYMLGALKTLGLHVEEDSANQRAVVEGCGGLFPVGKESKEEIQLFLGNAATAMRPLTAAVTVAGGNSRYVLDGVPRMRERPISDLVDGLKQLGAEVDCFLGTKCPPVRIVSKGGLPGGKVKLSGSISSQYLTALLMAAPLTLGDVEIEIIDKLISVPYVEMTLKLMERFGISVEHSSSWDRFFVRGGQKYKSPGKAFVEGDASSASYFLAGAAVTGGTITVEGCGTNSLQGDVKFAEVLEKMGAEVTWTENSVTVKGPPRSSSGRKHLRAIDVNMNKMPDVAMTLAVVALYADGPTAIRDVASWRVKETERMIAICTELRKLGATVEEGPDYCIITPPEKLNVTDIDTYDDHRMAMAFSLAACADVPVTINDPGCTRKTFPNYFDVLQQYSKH

C=C(OP(=O)(O)O)C(=O)O [PEP, phosphoenolpyruvate]
Km for PEP: 54 µM
